Like-named read-outs stand apart in the source and are kept apart here.
Key:
Bcl-XL protein = Bcl-XL protein (Homo sapiens, UniProt Q07817); assay: Bcl-XL binding affinity, fluorescence polarization with fluorescein-labeled BAD peptide; conditions: Wang's equation, read-out: Target Binding Affinity Ki (Bcl-XL)
Procedure: A mixture comprising 125 μL per well of assay buffer (20 mM phosphate buffer (pH 7.4), 1 mM EDTA, 50 mM NaCl, 0.05% PF-68), 6 nM of Bcl-XL protein (prepared as described in Science 1997, 275, 983-986), 1 nM fluorescein-labeled BAD peptide (prepared in-house) and the DMSO solution of the compound was shaken for 2 minutes and placed in a LJL Analyst (LJL Bio Systems, CA). A negative control (DMSO, 15 nM BAD peptide, assay buffer) and a positive control (DMSO, 1 nM BAD peptide, 6 nM Bcl-XL, assay buffer) were used to determine the range of the assay. Polarization was measured at room temperature using a continuous Fluorescein lamp (excitation 485 nm, emission 530 nm). Percentage of inhibition was determined by (1-((mP value of well-negative control)/range))×100%.

[1] = test system: NCI-H146 human small cell lung carcinoma cells; assay: Cellular efficacy in human tumor cell line (MTS viability assay); assay type: cell-based; conditions: NCI-H146, 10% human serum, 48 hours
Procedure: NCI-H146 (ATCC, Manassas, Va.) human small cell lung carcinoma cells were plated 50,000 cells per well in 96-well tissue culture plates in a total volume of 100 μL tissue culture medium supplemented with 10% human serum (Invitrogen, Carlsbad, Calif.) instead of fetal bovine serum and treated with a 2-fold serial dilution of the compounds of interest from 10 μM to 0.020 μM. Each concentration was tested in duplicate at least 3 separate times. The number of viable cells following 48 hours of compound treatment was determined using the CellTiter 96® AQueous non-radioactive cell proliferation MTS assay according to manufacturer's recommendations (Promega Corp., Madison, Wis.).

[2] = Pharmacokinetic evaluation in rat; assay type: in vivo; conditions: male, Sprague-Dawley, plasma; for AUC / Cmax: 5 mg/kg, oral; for AUC: Table 3, read-out: Pharmacokinetic area under the plasma concentration Curve (rat) AUC; for Cmax: Table 3, read-out: Pharmacokinetic peak plasma concentration (rat) Cmax; for AUC(0-inf): single 5 mg/kg oral dose, Table 1, read-out: Pharmacokinetic area under the plasma concentration Curve (rat) AUC0-∞
Procedure: The pharmacokinetic behavior of compounds of this disclosure was determined following a single 2 mg/kg intravenous or 5 mg/kg oral dose in male Sprague-Dawley derived rats (n=3 per group). The compounds were prepared as 2 mg/mL solution in a 10% DMSO in PEG-400 formulation for both oral and intravenous administration. The 1 mL/kg intravenous dose was administered as a slow bolus (about 1-2 minutes) in the jugular vein of a rat under light ether anesthetic. The oral dose was administered by gavage. Serial blood samples were obtained from a tail vein of each rat prior 0.1 (IV only), 0.25, 0.5, 1, 1.5, 2, 3, 4, 6, 8 and 24 hours after dosing. The heparinized samples were thoroughly mixed and placed in an ice bath. Plasma was separated by centrifugation and stored frozen prior to analysis.
The compounds of interest were separated from the plasma using protein precipitation with acetonitrile. A plasma (100-200 μL, sample or spiked standard) aliquot was combined with 50 μL of internal standard (structurally related analog prepared in acetonitrile) and 1 ml acetonitrile in a 96-well polypropylene deep well plate. The plates were vortexed for 30 seconds followed by centrifugation (3500 rpm×15 minutes, 4° C.). In an automated manner, the supernatant was transferred to a clean 96-well plate. The samples were evaporated to near dryness on a Micro-Vap™ under a stream of dry nitrogen over low heat (˜37° C.). The samples were reconstituted vortexing with 0.2 mL 5% DMSO in acetonitrile. A 0.1-0.2 ml aliquot of acetonitrile: 0.1% trifluoroacetic acid (20:80, by volume) was added to each well, followed by an additional 30 second vortexing. The plates were centrifuged (3500 rpm×15 minutes, 4° C.) prior to HPLC-MS/MS analysis. Samples were analyzed simultaneously with spiked plasma standards. All samples from each study were analyzed as a single batch on the LC-MS/MS.
The compounds of interest and the internal standard were separated from each other and co-extracted contaminants on a 50×3 mm Keystone Betasil CN 5 μm column with an acetonitrile: 0.1% trifluoroacetic acid mobile phase (50:50, by volume) at a flow rate of 0.7 ml/min. Analysis was performed on a Sciex API 300™ Biomolecular Mass Analyzer using a heated nebulizer interface. Peak areas of the title compounds and internal standards were determined using the Sciex MacQuan™ software. Calibration curves were derived from peak area ratio (parent drug/internal standard) of the spiked rat plasma standards using least squares linear regression of the ratio versus the theoretical concentration. The methods were generally linear over the range of the standard curve (correlation coefficients >0.99) with an estimated quantitation limit of 0.01 μg/mL. The plasma concentration data for each animal were submitted to multi-exponential curve fitting using WinNonlin. The area under the plasma concentration-time curve from 0 to t hours (time of the last measurable plasma concentration) after dosing (AUC0-t) was calculated using the linear trapezoidal rule for the plasma concentration-time profiles. The residual area extrapolated to infinity, determined as the final measured plasma concentration (Ct) divided by the terminal elimination rate constant (β), was added to AUC0-t to produce the total area under the curve (AUC0-∞). Ki values shown in the tables below were determined using Wang's equation (Wang Z X., An Exact Mathematical Expression For Describing Competitive Binding Of Two Different Ligands To A Protein Molecule. FEBS Lett. 1995; 360:111-4)).

Bcl-2 protein = biological target: T1, Bcl-2 protein (Homo sapiens, UniProt P10415, DELINS35-91DVEENRTEAPEGTESE, form not given); assay: Bcl-2 binding affinity, fluorescence polarization with fluorescein-labeled BAX peptide; conditions: Wang's equation, read-out: Target Binding Affinity Ki (Bcl-2)
T1 construct: fused on or other part: A short piece of the Bcl-xL (Q07817) loop replaces Bcl-2 loop residues 35-91; The C-terminal membrane anchor is absent
T1 sequence (P10415 with tags, fused parts or gaps with the stated changes): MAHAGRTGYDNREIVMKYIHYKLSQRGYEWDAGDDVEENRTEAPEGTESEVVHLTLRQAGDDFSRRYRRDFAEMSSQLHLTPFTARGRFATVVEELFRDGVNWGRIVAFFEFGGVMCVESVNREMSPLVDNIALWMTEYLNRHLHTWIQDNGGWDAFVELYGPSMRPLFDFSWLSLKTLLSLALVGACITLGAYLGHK

[3] = Table 1, read-out: NCI-H146 Cellular Efficacy EC50
[4] = Table 3, read-out: NCI-H146 Cellular Efficacy H146 EC50

Sequence of Bcl-XL protein (Q07817 with tags, fused parts or gaps DEL45-84): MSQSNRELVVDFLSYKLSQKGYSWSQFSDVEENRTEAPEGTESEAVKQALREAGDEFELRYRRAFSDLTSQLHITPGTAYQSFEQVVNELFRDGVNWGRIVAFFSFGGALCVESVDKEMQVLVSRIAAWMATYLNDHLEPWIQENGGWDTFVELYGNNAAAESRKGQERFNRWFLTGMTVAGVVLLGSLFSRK

Row | SMILES | Ki (Bcl-XL protein) [nM] | EC50 [1, 3] [nM] | EC50 [1, 4] [nM] | AUC [2] [µM·h] | Cmax [2] [nM] | AUC(0-inf) [2] [µM·h] | Ki (Bcl-2 protein) [nM]
1 | CC(C)N(C)CC[C@H](CSc1ccccc1)Nc1ccc(S(=O)(=O)NC(=O)c2ccc(N3CCN(CC4=C(c5ccc(Cl)cc5)CCCC4)CC3)cc2)cc1S(=O)(=O)C(F)(F)F [Example 33, N-(4-(4-((2-(4-chlorophenyl)cyclohex-1-en-1-yl)methyl)piperazin-1-yl)benzoyl)-4-(((1R)-3-(isopropyl(methyl)amino)-1-((phenylsulfanyl)methyl)propyl)amino)-3-((trifluoromethyl)sulfonyl)benzenesulfonamide] | ≤ 1 | 37.8 | 38 | 3.01 | 129 | 3.01 | ≤ 1
2 | CC(C)N(C)CC[C@H](CSc1ccccc1)Nc1ccc(S(=O)(=O)NC(=O)c2ccc(N3CCN(CC4=C(c5ccc(Cl)cc5)CCC(C)(C)C4)CC3)cc2)cc1S(=O)(=O)C(F)(F)Cl [Example 23, 3-((chloro(difluoro)methyl)sulfonyl)-N-(4-(4-((2-(4-chlorophenyl)-5,5-dimethylcyclohex-1-en-1-yl)methyl)piperazin-1-yl)benzoyl)-4-(((1R)-3-(isopropyl(methyl)amino)-1-((phenylsulfanyl)methyl)propyl)amino)benzenesulfonamide] | ≤ 1 | 52.8 |  |  |  | 3.54 | ≤ 1
3 | O=C(NS(=O)(=O)c1ccc(N[C@H](CCN2CCCCCC2)CSc2ccccc2)c(S(=O)(=O)C(F)(F)F)c1)c1ccc(N2CCN(CC3=C(c4ccc(Cl)cc4)CCCC3)CC2)cc1 [Example 16, 4-(((1R)-3-(azepan-1-yl)-1-((phenylsulfanyl)methyl)propyl)amino)-N-(4-(4-((2-(4-chlorophenyl)-1-cyclohex-1-en-1-yl)methyl)piperazin-1-yl)benzoyl)-3-((trifluoromethyl)sulfonyl)benzenesulfonamide] | ≤ 2 | 37.4 |  |  |  | 2.37 | ≤ 2
4 | O=C(NS(=O)(=O)c1ccc(N[C@H](CCN2CCCC2)CSc2ccccc2)c(S(=O)(=O)C(F)(F)F)c1)c1ccc(N2CCN(CC3=C(c4ccc(Cl)cc4)CCCCC3)CC2)cc1 [Example 29, N-(4-(4-((2-(4-chlorophenyl)cyclohept-1-en-1-yl)methyl)piperazin-1-yl)benzoyl)-4-(((1R)-1-((phenylsulfanyl)methyl)-3-(pyrrolidin-1-yl)propyl)amino)-3-((trifluoromethyl)sulfonyl)benzenesulfonamide] | ≤ 1 | 29.8 |  |  |  | 1.74 | ≤ 1
5 | CN(C)CC[C@H](CSc1ccccc1)Nc1ccc(S(=O)(=O)NC(=O)c2ccc(N3CCN(CC4=C(c5ccc(Cl)cc5)CC(C)(C)CC4)CC3)cc2)cc1S(=O)(=O)C(F)(F)F [Example 37, N-(4-(4-((2-(4-chlorophenyl)-4,4-dimethylcyclohex-1-en-1-yl)methyl)piperazin-1-yl)benzoyl)-4-(((1R)-3-(dimethylamino)-1-((phenylsulfanyl)methyl)propyl)amino)-3-((trifluoromethyl)sulfonyl)benzenesulfonamide] | ≤ 1 | 17.5 |  |  |  | 7.3 | ≤ 1
6 | CC(C)N(C)CC[C@H](CSc1ccccc1)Nc1ccc(S(=O)(=O)NC(=O)c2ccc(N3CCN(CC4=C(c5ccc(Cl)cc5)CC(C)(C)CC4)CC3)cc2)cc1S(=O)(=O)C(F)(F)F [Example 14, N-(4-(4-((2-(4-chlorophenyl)-4,4-dimethylcyclohex-1-en-1-yl)methyl)piperazin-1-yl)benzoyl)-4-(((1R)-3-(isopropyl(methyl)amino)-1-((phenylsulfanyl)methyl)propyl)amino)-3-((trifluoromethyl)sulfonyl)benzenesulfonamide] | ≤ 1 | 30.9 |  |  |  | 3.42 | ≤ 1
7 | CN(C)CC[C@H](CSc1ccccc1)Nc1ccc(S(=O)(=O)NC(=O)c2ccc(N3CCN(CC4=C(c5ccc(Cl)cc5)CCCC4)CC3)cc2)cc1S(=O)(=O)C(F)(F)Cl [Example 18, 3-((chloro(difluoro)methyl)sulfonyl)-N-(4-(4-((2-(4-chlorophenyl)cyclohex-1-en-1-yl)methyl)piperazin-1-yl)benzoyl)-4-(((1R)-3-(dimethylamino)-1-((phenylsulfanyl)methyl)propyl)amino)benzenesulfonamide] | ≤ 1 | 15.4 | 15 | 0.609 | 59 | 0.61 | ≤ 1
8 | CC1(C)CCC(c2ccc(Cl)cc2)=C(CN2CCN(c3ccc(C(=O)NS(=O)(=O)c4ccc(N[C@H](CCN5CC6CC5CO6)CSc5ccccc5)c(S(=O)(=O)C(F)(F)F)c4)cc3)CC2)C1 (stereo partly drawn) [Example 10, N-(4-(4-((2-(4-chlorophenyl)-5,5-dimethylcyclohex-1-en-1-yl)methyl)piperazin-1-yl)benzoyl)-4-(((1R)-3-(2-oxa-5-azabicyclo[2.2.1]hept-5-yl)-1-((phenylsulfanyl)methyl)propyl)amino)-3-((trifluoromethyl)sulfonyl)benzenesulfonamide] | ≤ 1 | 34.2 |  |  |  | 2.48 | ≤ 1
9 | CC1(C)CCC(c2ccc(Cl)cc2)=C(CN2CCN(c3ccc(C(=O)NS(=O)(=O)c4ccc(N[C@H](CCN5CC6CC5CO6)CSc5ccccc5)c(S(=O)(=O)C(F)(F)Cl)c4)cc3)CC2)C1 (stereo partly drawn) [Example 11, 3-((chloro(difluoro)methyl)sulfonyl)-N-(4-(4-((2-(4-chlorophenyl)-5,5-dimethylcyclohex-1-en-1-yl)methyl)piperazin-1-yl)benzoyl)-4-(((1R)-3-(2-oxa-5-azabicyclo[2.2.1]hept-5-yl)-1-((phenylsulfanyl)methyl)propyl)amino)benzenesulfonamide] | ≤ 3 | 20.6 |  |  |  | 2.4 | ≤ 2
10 | O=C(NS(=O)(=O)c1ccc(N[C@H](CCN2CC3CC2CO3)CSc2ccccc2)c(S(=O)(=O)C(F)(F)Cl)c1)c1ccc(N2CCN(CC3=C(c4ccc(Cl)cc4)CCCCC3)CC2)cc1 (stereo partly drawn) [Example 13, 3-((chloro(difluoro)methyl)sulfonyl)-N-(4-(4-((2-(4-chlorophenyl)cyclohept-1-en-1-yl)methyl)piperazin-1-yl)benzoyl)-4-(((1R)-3-(2-oxa-5-azabicyclo[2.2.1]hept-5-yl)-1-((phenylsulfanyl)methyl)propyl)amino)benzenesulfonamide] | ≤ 1 | 19 |  |  |  | 2.06 | ≤ 1
